Test results from PMC8497620, “Structure and inhibition of Cryptococcus neoformans sterylglucosidase to develop antifungal agents” (Nature Communications, 2021).
Where “and” joins values, the source holds several entries; their conditions need not be identical. Identical values can stand only once. Entries after “also recorded” stand apart in the source; their conditions may differ. Like-named read-outs stand apart in the source and are kept apart here.

Assays:
[1] = biological target: T1, Cerezyme (human glucosylceramidase) (Homo sapiens, UniProt P04062, R534H); experiment: Effect on Cerezyme activity with res-glp substrate; format: biochemical; settings: substrate resorufin 3β-D-glucopyranoside (100 µM)
T1 construct: purchased Genzyme Corporation, Cambridge, MA, USA
T1 sequence (P04062 40-536 R534H): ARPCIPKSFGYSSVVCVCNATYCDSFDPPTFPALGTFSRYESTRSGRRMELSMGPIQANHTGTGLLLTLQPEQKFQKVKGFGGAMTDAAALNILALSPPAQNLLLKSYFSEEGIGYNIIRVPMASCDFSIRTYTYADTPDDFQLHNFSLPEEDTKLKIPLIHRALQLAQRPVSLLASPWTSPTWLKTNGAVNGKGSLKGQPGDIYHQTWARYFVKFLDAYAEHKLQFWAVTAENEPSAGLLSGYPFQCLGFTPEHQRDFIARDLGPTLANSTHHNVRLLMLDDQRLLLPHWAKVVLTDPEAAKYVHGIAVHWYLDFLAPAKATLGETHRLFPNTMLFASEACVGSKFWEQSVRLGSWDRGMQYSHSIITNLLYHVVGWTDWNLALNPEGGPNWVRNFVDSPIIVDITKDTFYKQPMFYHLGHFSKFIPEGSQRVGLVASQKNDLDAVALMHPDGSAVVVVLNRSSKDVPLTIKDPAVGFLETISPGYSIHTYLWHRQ
Method: Resorufin-3β-D-glucopyranoside (res-glp, Sigma-Aldrich) enzyme kinetic assays were performed according to methods described by Urban et al.[16] with modifications. Reaction buffer contained 50 mM citric acid, 176 mM K2HPO4, pH 6, 0.01% Tween-20, and 10 mM sodium taurocholate. The reactions were carried out in black 96-well plates using 20 ng of enzyme with 100 μM res-glp substrate. In all, 10 μL/well of res-glp substrate was added to each well and the reaction was initiated by adding 20 μL enzyme (20 ng). After incubation at 37 °C for 30–40 min, the fluorescence was read at an excitation of 570 (±10) nm and an emission of 610 (±10) nm on a VersaMax™ Microplate Reader from Molecular Devices. A standard curve was prepared with serial dilutions of the free fluorophore, resorufin, in the same volume of assay buffer. All reactions were linear with respect to time and protein concentration and the pH, temperature, and dimethyl sulfoxide (DMSO) optimal tolerance was verified.
The Z′-factor was used for the assessment of the efficiency of the HTS assay for each individual plate. Values greater than 0.5 has been considered as an indicator of an excellent screening assay quality. […] The top three hits identified were re-tested in serial dilution against Sgl1 and cerezyme.

C. neoformans Sgl1 = C. neoformans Sgl1 (Cryptococcus neoformans var. grubii, UniProt J9W473); experiment: Sgl1 inhibition with native substrate erg-glc; format: biochemical; settings: substrate ergosterol 3β-D-glucoside (1 mol%); for inhibition at 10 µM: read-out: % Sgl1 Inhibition, 10 µM compound; for inhibition at 100 µM: read-out: % Sgl1 Inhibition, 100 µM compound; for inhibition at 0.1 µM: read-out: % Sgl1 Inhibition, 0.1 µM compound; for inhibition at 1 µM: read-out: % Sgl1 Inhibition, 1 µM compound
Sequence of C. neoformans Sgl1 (J9W473 entry or part of it): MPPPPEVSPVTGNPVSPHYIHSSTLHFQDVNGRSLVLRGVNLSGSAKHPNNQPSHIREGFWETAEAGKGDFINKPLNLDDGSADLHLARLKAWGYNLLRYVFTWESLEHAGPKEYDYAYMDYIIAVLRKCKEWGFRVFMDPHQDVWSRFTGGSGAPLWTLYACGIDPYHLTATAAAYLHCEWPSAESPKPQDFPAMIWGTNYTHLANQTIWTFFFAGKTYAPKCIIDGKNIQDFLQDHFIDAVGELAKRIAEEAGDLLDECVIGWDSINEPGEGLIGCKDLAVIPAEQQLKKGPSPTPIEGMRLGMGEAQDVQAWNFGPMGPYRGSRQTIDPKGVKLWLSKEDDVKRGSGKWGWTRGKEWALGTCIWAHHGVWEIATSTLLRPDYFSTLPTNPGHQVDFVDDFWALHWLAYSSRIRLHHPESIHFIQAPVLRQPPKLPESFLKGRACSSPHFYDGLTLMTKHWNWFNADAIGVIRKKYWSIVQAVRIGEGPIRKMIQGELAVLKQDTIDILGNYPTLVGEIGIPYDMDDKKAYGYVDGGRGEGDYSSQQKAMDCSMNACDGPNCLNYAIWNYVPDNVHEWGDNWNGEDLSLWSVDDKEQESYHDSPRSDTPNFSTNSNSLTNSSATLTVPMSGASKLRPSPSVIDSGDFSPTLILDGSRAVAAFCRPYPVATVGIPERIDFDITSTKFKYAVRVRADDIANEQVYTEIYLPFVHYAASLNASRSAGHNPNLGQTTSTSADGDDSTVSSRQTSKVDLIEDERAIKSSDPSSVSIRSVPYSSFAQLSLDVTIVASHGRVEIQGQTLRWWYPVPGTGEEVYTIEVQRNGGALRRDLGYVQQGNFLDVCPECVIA
Method: To validate the selective inhibition of Sgl1 by these compounds, we first tested their ability to inhibit hydrolysis of erg-glc in vitro.
A 50 μL volume of Cn Sgl1 wild type and 50 μL of mixed micelles of lipid and Triton X-100 in 50 mM Bis-Tris buffer with 150 mM NaCl, 5 mM βME, and 5 mM DTT were mixed and incubated at 37 °C for 10 min (erg-glc, Avanti Polar Lipids) and 1 h (C6-NBD-glcCer, Matreya). For the substrate erg-glc the amount of protein was 5 ng. 150 ng protein was used for reactions with C6-NBD-GlcCer. After the incubation period, each reaction was quenched with a 2:1 chloroform:methanol solution and the organic phase was collected and dried. Then, the lipid content was resuspended in 50 μL methanol and applied to HPLC (Agilent Technologies). Total erg-glc and ergosterol was detected using absorbance at 282 nm on a C-8 column with a flow rate of 0.5 ml/min in methanol/water 90:10 ratio buffered with 1 mM ammonium formate and 0.2% formic acid. A 85:15 ratio of the same eluent was used for C6-NBD-GlcCer and C6-NBD-ceramide monitoring the fluorescence at 470/530 nm excitation/emission. The total area of product was normalized by the total area of its respective substrate.

C. neoformans H99 [2] = format: cell-based, Cryptococcus neoformans; settings: for Ergosterol 3β-D-glucoside accumulation (pmol/ Inorganic phosphate): 100 µM; for accumulation of erg-glc, fold less than the mutant Cn Δsgl1: 500 µM, 24 h; for erg-glc accumulation compared to untreated Cn H99 control: 24 h of treatment
Method: C. neoformans H99 was cultivated in yeast nitrogen base (YNB) broth for 24 h at 37 °C with shaking. […] […] After that, the resultant pellets were re-counted and used for lipid extraction. Thenceforth the total lipid was extracted as described previously by Singh et al.[55]. The dried samples were resuspended in chloroform/methanol 2:1 ratio for LC-MS analysis. A standard erg-glc from Avanti Polar Lipids was used as a control for the calibration curve. Data were normalized to the total inorganic phosphate content in the sample.

C. neoformans H99 [3] = experiment: Growth inhibition assay (YNB, 1% glucose, sealed plates, limited oxygen); format: cell-based, Cryptococcus neoformans; settings: 37 °C, 72 h
Method: Five microliters containing 100 cells of C. neoformans H99 were inoculated in solid YNB media without amino acids plus 1% w/v glucose. Plates were then sealed with clear polyolefin sealing tape (ThermoFisher) and incubated at 37 °C for 72 h. Hits 1, 9, and 15 were added to the media at concentrations of 10 and 50 µM. H99, Δsgl1, and Δsgl1 + SGL1 strains were used as controls without compounds.

| Structure (SMILES) | % Cerezyme Inhibition ([1]; 12.5427 µM compound) | % Cerezyme Inhibition ([1]; 25.0854 µM compound) [%] | inhibition at 25.0854 µM ([1]; 25.0854 µM compound) [%] | % Cerezyme Inhibition ([1]; 50.1708 µM compound) [%] | inhibition at 50.1708 µM ([1]; 50.1708 µM compound) [%] | inhibition at 100.342 µM ([1]; 100.342 µM compound) [%] | % Cerezyme Inhibition ([1]; 200.683 µM compound) [%] | inhibition at 200.683 µM ([1]; 200.683 µM compound) [%] | inhibition at 401.367 µM ([1]; 401.367 µM compound) [%] | % Cerezyme Inhibition ([1]; 800 µM compound) [%] | inhibition at 800 µM ([1]; 800 µM compound) [%] | % Sgl1 Inhibition (C. neoformans Sgl1; 0.1 µM compound, 0.1 µM) | % Sgl1 Inhibition (C. neoformans Sgl1; 10 µM compound, 10 µM) [%] | % Sgl1 Inhibition (C. neoformans Sgl1; 100 µM compound, 100 µM) [%] | inhibition at 10 µM (C. neoformans Sgl1) [%] | inhibition at 100 µM (C. neoformans Sgl1) [%] | Ergosterol 3β-D-glucoside accumulation (pmol/ Inorganic phosphate) (C. neoformans H99 [2]; 12h) | Ergosterol 3β-D-glucoside accumulation (pmol/ Inorganic phosphate) (C. neoformans H99 [2]; 24h) | accumulation of erg-glc, fold less than the mutant Cn Δsgl1 (C. neoformans H99 [2]) | growth of wild-type C. neoformans (C. neoformans H99 [3]; 50 µM) | other results |
| --- | --- | --- | --- | --- | --- | --- | --- | --- | --- | --- | --- | --- | --- | --- | --- | --- | --- | --- | --- | --- | --- |
| COc1cccc(-c2ncc(CN3CCC(O)(CO)CC3)s2)c1 [Hit 1] | 4.937% and 1.065% | 6.583 | 7.34 | 7.795 | 8.81 | 9.86 | 9.338 | 9.63 | 9.86 | 12.9786 | 10.5 | 11.4412% and 5.382% | 46.34 | 79.9522 | 40.5 | 84.8 | 22000000 pmol/ Inorganic phosphate and 25300000 pmol/ Inorganic phosphate and 19400000 pmol/ Inorganic phosphate | 17200000 pmol/ Inorganic phosphate and 20300000 pmol/ Inorganic phosphate and 31000000 pmol/ Inorganic phosphate | about 10 fold | inhibit growth similarly to C. neoformans Δsgl1; also recorded: lack of growth | erg-glc accumulation compared to untreated Cn H99 control (C. neoformans H99 [2]): significant differences, especially in concentrations higher than 10 µM |
| CN1C[C@@H](NC(=O)Cc2ccc3c(c2)NC(=O)CO3)C[C@@H]1CO [Hit 9] | 0.6044% | 2.143 | 2.64 | 6.259 | 5.68 | 6.87 | 9.927 | 9.82 | 14.1 | – | 16.7 | 58.2711% | 98.2082 | 100 | 97.6 | 98.1 | – | – | about 10 fold | inhibit growth similarly to C. neoformans Δsgl1; also recorded: lack of growth | inhibition at 12.5427 µM ([1]; 12.5427 µM compound): 1.03%; % Cerezyme Inhibition ([1]; 100.342 µM compound): 7.029%; % Cerezyme Inhibition ([1]; 401.367 µM compound): 12.2165%; % Sgl1 Inhibition (C. neoformans Sgl1; 1 µM compound, 1 µM): 93.4351%; inhibition at 0.1 µM (C. neoformans Sgl1): 52.2%; inhibition at 1 µM (C. neoformans Sgl1): 92.9%; growth of wild-type C. neoformans (C. neoformans H99 [3]; 10 µM): abrogated C. neoformans growth |
| CC(C)c1nc(N[C@@H]2C[C@@H](CO)N(C)C2)c2cnn(C)c2n1 [Hit 15] | – | 1.771 | 1.74 | 3.823 | 2.11 | 5.46 | 6.666 | 9.37 | 13.2 | 12.1079 | 16.6 | 19.6403% | 95.289 | – | 95.2 | 100 | 28100000 pmol/ Inorganic phosphate and 30500000 pmol/ Inorganic phosphate and 41500000 pmol/ Inorganic phosphate | 39400000 pmol/ Inorganic phosphate and 51600000 pmol/ Inorganic phosphate and 57400000 pmol/ Inorganic phosphate | about 10 fold | inhibit growth similarly to C. neoformans Δsgl1; also recorded: lack of growth | inhibition at 12.5427 µM ([1]; 12.5427 µM compound): 0%; % Cerezyme Inhibition ([1]; 100.342 µM compound): 6.414%; % Cerezyme Inhibition ([1]; 401.367 µM compound): 12.8892%; % Sgl1 Inhibition (C. neoformans Sgl1; 1 µM compound, 1 µM): 70.0789%; inhibition at 0.1 µM (C. neoformans Sgl1): 26.7%; inhibition at 1 µM (C. neoformans Sgl1): 73.4%; Ergosterol 3β-D-glucoside accumulation (pmol/ Inorganic phosphate) (C. neoformans H99 [2]; 48h): 34400000 pmol/ Inorganic phosphate and 28300000 pmol/ Inorganic phosphate and 33700000 pmol/ Inorganic phosphate; erg-glc accumulation compared to untreated Cn H99 control (C. neoformans H99 [2]): significant differences, especially in concentrations higher than 10 µM; growth of wild-type C. neoformans (C. neoformans H99 [3]; 10 µM): abrogated C. neoformans growth |
